Reference: US20260001928A1 (CORTERIA PHARMACEUTICALS, priority 2022, published 2026)
*1 amine or outer side, *2 acyl side, *3 side chain or, on linkers, in order; H or OH if unused. Where a SMILES comes first, the peptide text is derived from it. Side-chain parts run from the residue outwards. [ ]: non-standard residue; d: D form. The star is where a group is joined. C16 diacid = O=C(O)CCCCCCCCCCCCCCC(=O)*; γGlu = O=C(O)[C@H](CCC(=O)[*:2])N[*:1]; Isovaleryl = CC(C)CC(=O)*; Pentanoyl = CCCCC(=O)*; Aib = CC(C)(N)C(=O)O; Butyryl = CCCC(=O)*

What was measured:
[1] = molecular target: T1, human CRF2a receptor (Homo sapiens, UniProt Q13324); assay: Activity at human CRF2a receptor, cAMP functional assay in TeloHEAC cells; format: cell-based; settings: TeloHEAC cells stably expressing human CRF2a receptor, relative to urocortin 2 (100 nM = 100%)
T1 construct: expressed in transfected cells; host or cells: TeloHEAC cells
T1 sequence (Q13324 1-411): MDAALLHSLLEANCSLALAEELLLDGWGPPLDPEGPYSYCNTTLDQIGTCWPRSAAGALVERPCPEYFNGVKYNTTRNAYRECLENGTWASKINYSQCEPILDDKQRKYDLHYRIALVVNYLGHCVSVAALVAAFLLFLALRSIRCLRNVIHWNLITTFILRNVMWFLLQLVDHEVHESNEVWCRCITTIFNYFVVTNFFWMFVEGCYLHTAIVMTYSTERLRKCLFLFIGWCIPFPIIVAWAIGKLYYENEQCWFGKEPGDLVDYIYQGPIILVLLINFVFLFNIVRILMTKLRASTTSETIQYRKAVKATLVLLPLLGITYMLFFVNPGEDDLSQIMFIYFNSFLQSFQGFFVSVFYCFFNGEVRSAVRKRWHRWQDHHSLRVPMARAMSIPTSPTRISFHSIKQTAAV
Experimental: Agonism of compounds for human corticotropin-releasing factor 2a (CRF2a receptor) was determined by a functional assay measuring cAMP modulation upon treatment of TeloHEAC cells stably expressing human CRF2a receptor. Compounds were dissolved at 0.5 mM in 100% DMSO and serially diluted (1:2) in 100% DMSO for 16 dilutions. 20 nL of each dilution was then transferred to 384-well assay plate using an acoustic droplet ejection instrument. 5 μL of compound buffer (1×HBSS; 20 mM HEPES,) were then added to each well. Prior to use, frozen cells were thawed quickly at 37° C. and washed (5 min at 900 rpm) with 20 mL cell buffer (1×HBSS; 20 mM HEPES). Cells were resuspended in cell buffer added with 2 mM IBMX and adjusted to a cell density of […]. 5 μL cells (final dell density: 10000 cells/well) were dispensed in the compound-containing 384-well assay plate and incubated for 30 minutes 37° C. The cAMP level in treated cells was determined using the Cisbio 62AM4PEC kit according to manufacturer's instruction. Finally, plates were incubated for 1 h at room temperature before measuring the fluorescence ratio between 665/620 nm. The percent activity value (E %) was calculated by setting 100 nM of urocortin 2 (UCN2) as 100%. The in vitro potency of the compounds was quantified by determining the concentrations that caused 50% activation of maximal response (EC50) relative to urocortin 2.

[2] = molecular target: T2, CFR1R receptor (Homo sapiens, UniProt P34998); assay: Activity at anti-target CFR1R receptor, cAMP assay in CRF1R-overexpression CHO-K1 cells; format: cell-based; settings: 100% = Sauvagine at 100 nM
T2 construct: host or cells: CHO-K1 (clone 2)
T2 sequence (P34998 24-415): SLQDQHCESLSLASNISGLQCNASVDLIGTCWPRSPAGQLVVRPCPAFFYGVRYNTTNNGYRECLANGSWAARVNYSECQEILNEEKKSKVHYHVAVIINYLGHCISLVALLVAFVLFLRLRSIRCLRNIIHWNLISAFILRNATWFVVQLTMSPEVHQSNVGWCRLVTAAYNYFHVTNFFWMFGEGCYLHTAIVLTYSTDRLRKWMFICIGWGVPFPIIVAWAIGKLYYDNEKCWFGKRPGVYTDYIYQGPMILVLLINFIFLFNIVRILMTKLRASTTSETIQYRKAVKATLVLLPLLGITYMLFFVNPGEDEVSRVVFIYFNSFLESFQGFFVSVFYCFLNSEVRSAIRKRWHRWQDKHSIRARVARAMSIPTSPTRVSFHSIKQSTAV
Procedure, shortened: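 Grow clone 2 to near confluence at 37° C. under 5% CO2 in F12 (Hams) with 10% FBS and G418, harvest, and freeze in 10% DMSO. Thaw and plate at 4000 cells/well. Then proceed per the TeloHAEC method, normalising to Sauvagine 100 nM as maximum.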

EC50 [1]	Emax (% I) [2]	EC50 ([2]; cAMP)	Compound
0.06 nM	59 % I		CCCC(=O)N[C@H](C(=O)N[C@@H](CC(C)C)C(=O)N[C@@H](CO)C(=O)N[C@@H](CC(C)C)C(=O)N[C@@H](CC(=O)O)C(=O)N[C@@H](C(=O)N1CCC[C@H]1C(=O)N[C@H](C(=O)N[C@@H](CCCCN)C(=O)N[C@@H](CC(C)C)C(=O)N[C@@H](CCCCNC(=O)CC[C@H](NC(=O)CCCCCCCCCCCCCCC(=O)O)C(=O)O)C(=O)N[C@@H](CCC(N)=O)C(=O)N[C@H](C(=O)N[C@@H](CC(C)C)C(=O)N[C@@H](CC(C)C)C(=O)N[C@@H](CCCCN)C(=O)N[C@@H](CCC(N)=O)C(=O)N[C@@H](CCC(=O)O)C(=O)N[C@@H](CCCNC(=N)N)C(=O)N[C@@H](CCC(N)=O)C(=O)N[C@@H](CCCCN)C(=O)N[C@@H](CCCCN)C(=O)N[C@@H](CCC(N)=O)C(=O)N[C@@H](CCCNC(=N)N)C(=O)N[C@@H](CCC(=O)O)C(=O)N[C@@H](CCC(N)=O)C(=O)N[C@@H](C)C(=O)N[C@@H](CCC(=O)O)C(=O)N[C@@H](CCCCN)C(=O)N[C@@H](CC(N)=O)C(=O)N[C@@H](CCCCN)C(=O)N[C@@H](CCC(N)=O)C(=O)N[C@H](C(=O)N[C@@H](CC(C)C)C(=O)N[C@@H](CCC(=O)O)C(=O)N[C@@H](CCC(N)=O)C(=O)N[C@H](C(N)=O)C(C)C)[C@@H](C)CC)[C@@H](C)CC)[C@@H](C)CC)C(C)C)C(C)C [compound 7] (Butyryl-VLSLD[dV]PIKLK([γGlu-C16 diacid])QILLKQERQKKQREQAEKNKQILEQV-NH2)
0.14 nM	50 % I		CCCCC(=O)N[C@H](C(=O)N[C@@H](CC(C)C)C(=O)N[C@@H](CO)C(=O)N[C@@H](CC(C)C)C(=O)N[C@@H](CC(=O)O)C(=O)N[C@@H](C(=O)N1CCC[C@H]1C(=O)N[C@H](C(=O)N[C@@H](CCCCN)C(=O)N[C@@H](CC(C)C)C(=O)N[C@@H](CCCCNC(=O)CC[C@H](NC(=O)CCCCCCCCCCCCCCC(=O)O)C(=O)O)C(=O)N[C@@H](CCC(N)=O)C(=O)N[C@H](C(=O)N[C@@H](CC(C)C)C(=O)N[C@@H](CC(C)C)C(=O)N[C@@H](CCCCN)C(=O)N[C@@H](CCC(N)=O)C(=O)N[C@@H](CCC(=O)O)C(=O)N[C@@H](CCCNC(=N)N)C(=O)N[C@@H](CCC(N)=O)C(=O)N[C@@H](CCCCN)C(=O)N[C@@H](CCCCN)C(=O)N[C@@H](CCC(N)=O)C(=O)N[C@@H](CCCNC(=N)N)C(=O)N[C@@H](CCC(=O)O)C(=O)N[C@@H](CCC(N)=O)C(=O)N[C@@H](C)C(=O)N[C@@H](CCC(=O)O)C(=O)N[C@@H](CCCCN)C(=O)N[C@@H](CC(N)=O)C(=O)N[C@@H](CCCCN)C(=O)N[C@@H](CCC(N)=O)C(=O)N[C@H](C(=O)N[C@@H](CC(C)C)C(=O)N[C@@H](CCC(=O)O)C(=O)N[C@@H](CCC(N)=O)C(=O)N[C@H](C(N)=O)C(C)C)[C@@H](C)CC)[C@@H](C)CC)[C@@H](C)CC)C(C)C)C(C)C [compound 8] (Pentanoyl-VLSLD[dV]PIKLK([γGlu-C16 diacid])QILLKQERQKKQREQAEKNKQILEQV-NH2)
0.16 nM	77 % I		CC[C@H](C)[C@H](NC(=O)[C@H](CCC(N)=O)NC(=O)[C@H](CCCCNC(=O)CC[C@H](NC(=O)CCCCCCCCCCCCCCC(=O)O)C(=O)O)NC(=O)[C@H](CC(C)C)NC(=O)[C@H](CCCCN)NC(=O)[C@@H](NC(=O)[C@@H]1CCCN1C(=O)[C@H](NC(=O)[C@H](CC(=O)O)NC(=O)[C@H](CC(C)C)NC(=O)[C@H](CO)NC(=O)[C@H](CC(C)C)NC(=O)[C@@H](NC(=O)CC(C)C)C(C)C)C(C)C)[C@@H](C)CC)C(=O)N[C@@H](CC(C)C)C(=O)N[C@@H](CC(C)C)C(=O)N[C@@H](CCCCN)C(=O)N[C@@H](CCC(N)=O)C(=O)N[C@@H](CCC(=O)O)C(=O)N[C@@H](CCCNC(=N)N)C(=O)N[C@@H](CCC(N)=O)C(=O)N[C@@H](CCCCN)C(=O)N[C@@H](CCCCN)C(=O)N[C@@H](CCC(N)=O)C(=O)N[C@@H](CCCNC(=N)N)C(=O)N[C@@H](CCC(=O)O)C(=O)N[C@@H](CCC(N)=O)C(=O)N[C@@H](C)C(=O)N[C@@H](CCC(=O)O)C(=O)N[C@@H](CCCCN)C(=O)N[C@@H](CC(N)=O)C(=O)N[C@@H](CCCCN)C(=O)N[C@@H](CCC(N)=O)C(=O)N[C@H](C(=O)N[C@@H](CC(C)C)C(=O)N[C@@H](CCC(=O)O)C(=O)N[C@@H](CCC(N)=O)C(=O)N[C@H](C(N)=O)C(C)C)[C@@H](C)CC [compound 9] (Isovaleryl-VLSLD[dV]PIKLK([γGlu-C16 diacid])QILLKQERQKKQREQAEKNKQILEQV-NH2)
0.13 nM	47 % I		CC[C@H](C)[C@H](NC(C)=O)C(=O)N[C@H](C(=O)N[C@@H](CC(C)C)C(=O)N[C@@H](CO)C(=O)N[C@@H](CC(C)C)C(=O)N[C@@H](CC(=O)O)C(=O)N[C@@H](C(=O)N1CCC[C@H]1C(=O)N[C@H](C(=O)N[C@@H](CCCCN)C(=O)N[C@@H](CC(C)C)C(=O)N[C@@H](CCCCNC(=O)CC[C@H](NC(=O)CCCCCCCCCCCCCCC(=O)O)C(=O)O)C(=O)N[C@@H](CCC(N)=O)C(=O)N[C@H](C(=O)N[C@@H](CC(C)C)C(=O)N[C@@H](CC(C)C)C(=O)N[C@@H](CCCCN)C(=O)N[C@@H](CCC(N)=O)C(=O)N[C@@H](CCC(=O)O)C(=O)N[C@@H](CCCNC(=N)N)C(=O)N[C@@H](CCC(N)=O)C(=O)N[C@@H](CCCCN)C(=O)N[C@@H](CCCCN)C(=O)N[C@@H](CCC(N)=O)C(=O)N[C@@H](CCCNC(=N)N)C(=O)N[C@@H](CCC(=O)O)C(=O)N[C@@H](CCC(N)=O)C(=O)N[C@@H](C)C(=O)N[C@@H](CCC(=O)O)C(=O)N[C@@H](CCCCN)C(=O)N[C@@H](CC(N)=O)C(=O)NC(C)(C)C(=O)N[C@@H](CCC(N)=O)C(=O)N[C@H](C(=O)N[C@@H](CC(C)C)C(=O)N[C@@H](CCC(=O)O)C(=O)N[C@@H](CCC(N)=O)C(=O)N[C@H](C(N)=O)C(C)C)[C@@H](C)CC)[C@@H](C)CC)[C@@H](C)CC)C(C)C)C(C)C [compound 16] (Ac-IVLSLD[dV]PIKLK([γGlu-C16 diacid])QILLKQERQKKQREQAEKN[Aib]QILEQV-NH2)
0.21 nM	12 % I	> 250 nM	CC[C@H](C)[C@H](NC(C)=O)C(=O)N[C@H](C(=O)N[C@@H](CC(C)C)C(=O)N[C@@H](CO)C(=O)N[C@@H](CC(C)C)C(=O)N[C@@H](CC(=O)O)C(=O)N[C@@H](C(=O)N1CCC[C@H]1C(=O)N[C@H](C(=O)N[C@@H](CCCCN)C(=O)N[C@@H](CC(C)C)C(=O)N[C@@H](CCCCNC(=O)CC[C@H](NC(=O)CCCCCCCCCCCCCCC(=O)O)C(=O)O)C(=O)N[C@@H](CCC(N)=O)C(=O)N[C@H](C(=O)N[C@@H](CC(C)C)C(=O)N[C@@H](CC(C)C)C(=O)N[C@@H](CCCCN)C(=O)N[C@@H](CCC(N)=O)C(=O)N[C@@H](CCC(=O)O)C(=O)N[C@@H](CCCNC(=N)N)C(=O)N[C@@H](CCC(N)=O)C(=O)N[C@@H](CCCCN)C(=O)N[C@@H](CCCCN)C(=O)N[C@@H](CCC(N)=O)C(=O)N[C@@H](CCCNC(=N)N)C(=O)N[C@@H](CCC(=O)O)C(=O)N[C@@H](CCC(N)=O)C(=O)N[C@@H](C)C(=O)N[C@@H](CCC(=O)O)C(=O)N[C@@H](CCCCN)C(=O)N[C@@H](CC(N)=O)C(=O)N[C@@H](CCC(=O)O)C(=O)N[C@@H](CCC(N)=O)C(=O)N[C@H](C(=O)N[C@@H](CC(C)C)C(=O)N[C@@H](CCC(=O)O)C(=O)N[C@@H](CCC(N)=O)C(=O)N[C@H](C(N)=O)C(C)C)[C@@H](C)CC)[C@@H](C)CC)[C@@H](C)CC)C(C)C)C(C)C [compound 17] (Ac-IVLSLD[dV]PIKLK([γGlu-C16 diacid])QILLKQERQKKQREQAEKNEQILEQV-NH2)
